In publication PMC6199279, “Design of Peptoid-peptide Macrocycles to Inhibit the β-catenin TCF Interaction in Prostate Cancer” (Nature Communications, 2018):
Numbered stars: 1 amine (or outer) side, 2 acyl side, 3 side chain; on linkers, the order of the positions; unused ones are H or OH. Square brackets hold non-standard residues; d marks the D form. Peptide text beside a SMILES is read from it. N(2-(2-PhOPh)Et)Gly = O=C(O)CNCCc1ccccc1Oc1ccccc1; Gly(N-3,5-(OMe)2-Ph) = COc1cc(NCC(=O)O)cc(OC)c1; X1 = COc1ccc([C@H](C)N(CC(=O)[*:2])[*:1])cc1; N((CH2)3OiPr)Gly = CC(C)OCCCNCC(=O)O

Biological target: T1, β-catenin:TCF4 protein interaction (Homo sapiens, UniProt P35222)
T1 construct: host or cells: HEK293
T1 sequence (P35222 2-781 limits assumed): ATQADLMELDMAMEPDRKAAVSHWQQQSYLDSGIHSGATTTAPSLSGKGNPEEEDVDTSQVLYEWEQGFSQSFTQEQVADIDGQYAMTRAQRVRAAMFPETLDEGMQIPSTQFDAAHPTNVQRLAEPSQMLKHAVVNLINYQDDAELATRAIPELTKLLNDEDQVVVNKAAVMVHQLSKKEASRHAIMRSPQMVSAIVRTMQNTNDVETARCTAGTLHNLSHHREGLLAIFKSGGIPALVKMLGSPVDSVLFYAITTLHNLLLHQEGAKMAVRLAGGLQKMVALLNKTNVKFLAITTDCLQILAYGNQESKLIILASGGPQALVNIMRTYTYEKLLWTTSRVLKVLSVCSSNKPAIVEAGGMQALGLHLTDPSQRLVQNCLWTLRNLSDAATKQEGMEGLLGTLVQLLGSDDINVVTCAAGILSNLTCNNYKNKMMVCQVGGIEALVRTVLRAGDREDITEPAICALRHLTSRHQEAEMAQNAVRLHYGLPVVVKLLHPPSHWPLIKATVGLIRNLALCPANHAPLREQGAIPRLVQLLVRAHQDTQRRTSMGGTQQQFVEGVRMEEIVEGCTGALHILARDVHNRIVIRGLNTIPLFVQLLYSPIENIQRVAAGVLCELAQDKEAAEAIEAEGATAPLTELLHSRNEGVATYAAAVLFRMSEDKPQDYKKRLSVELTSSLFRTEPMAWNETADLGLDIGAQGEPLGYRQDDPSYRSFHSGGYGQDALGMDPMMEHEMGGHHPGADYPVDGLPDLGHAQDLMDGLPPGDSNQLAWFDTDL
Assay: Co-immunoprecipitation of myc-TCF4 and endogenous β-catenin in HEK293 cells
Format: cell-based
Settings: HEK293 cells with myc-TCF4, 10 µM, 48 h, vs vehicle
Description: We next characterized the dose response curves for compound 13 in the Wnt and AR luciferase reporters. The linear version of 13 (linear 13: NH2-|N-mpp, N-dmp, N-ipp, N-Smpe, N-Smpe, D-Ala|-OH) was used as a control compound. […] To test direct binding, we pre-formed dynamic light scattering (DLS) with β-catenin in the presence of vehicle, compound 13, and α-cyclodextrin. […] HEK293 cells were transiently transfected with a plasmid expressing full length, myc-tagged TCF4. After 48 h treatment with either vehicle (DMSO) or 10 µM 13, cells were lysed and myc-TCF4 protein was immunoprecipitated.
LNCaP-abl and LNCaP-95 cells were cultured in indicator free RPMI 1640 media (Life) supplemented with 10% charcoal stripped FBS, 1% pennicillin/streptomycin, and 1% L-Glutamine. HEK-293 Cells were cultured in DMEM media (Life) supplemented with 10%FBS and 1% pennicillin/streptomycin. A549 and U2OS cells were cultured in RPMI 1640 media (Life) and McCoy’s 5 A modified media (Life), respectively, both supplemented with 10%FBS and 1% pennicillin/streptomycin. […] Both were measured using the ONE-Glo detection kit (Promega) and data is standardized to CellTiter-Fluor (Promega) viability readings to account for potential variations in well to well cell number. […] Total protein concentration in cell lysates were determined using Pierce Rapid Gold BCA Protein Assay Kit (Thermo). […]

## COc1ccc([C@H](C)N2CC(=O)N[C@H](C)C(=O)N(CCc3ccccc3Oc3ccccc3)CC(=O)N(c3cc(OC)cc(OC)c3)CC(=O)N(CCCOC(C)C)CC(=O)N([C@@H](C)c3ccc(OC)cc3)CC2=O)cc1 [Compound 13] (cyclo([dA][N(2-(2-PhOPh)Et)Gly][Gly(N-3,5-(OMe)2-Ph)][N((CH2)3OiPr)Gly][X1][X1]))
  β-catenin:TCF association (co-immunoprecipitated β-catenin): decreased
